Measurements as given in PubChem BioAssay (NCI).
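Five compound concentrations were applied to cells in 96-well plates for 48 hours; endpoints were derived by simple linear interpolation of the resulting dose-response curve. TGI denotes the concentration required for complete inhibition of growth.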

How the values were obtained:
Assay in all cases: NCI tumour cell line growth inhibition, 48 h
HOP-92 NSCLC = system: HOP-92 NSCLC
CCRF-CEM leukemia = system: CCRF-CEM leukemia
M14 melanoma = system: M14 melanoma
786-0 renal = system: 786-0 renal
EKVX NSCLC = system: EKVX NSCLC
SNB-19 CNS = system: SNB-19 CNS
DU-145 prostate = system: DU-145 prostate
HOP-62 NSCLC = system: HOP-62 NSCLC
KM12 colon = system: KM12 colon
MALME-3M melanoma = system: MALME-3M melanoma
T-47D breast = system: T-47D breast
CAKI-1 renal = system: CAKI-1 renal
HCC-2998 colon = system: HCC-2998 colon
SF-539 CNS = system: SF-539 CNS
U251 CNS = system: U251 CNS
A498 renal = system: A498 renal
SF-295 CNS = system: SF-295 CNS
MDA-MB-231 breast = system: MDA-MB-231 breast
RPMI-8226 leukemia = system: RPMI-8226 leukemia
SR leukemia = system: SR leukemia
RXF 393 renal = system: RXF 393 renal
SW-620 colon = system: SW-620 colon
OVCAR-5 ovarian = system: OVCAR-5 ovarian
OVCAR-4 ovarian = system: OVCAR-4 ovarian
NCI-H522 lung = system: NCI-H522 lung
SN12C renal = system: SN12C renal
NCI-H226 lung = system: NCI-H226 lung
MDA-MB-435 = system: MDA-MB-435
MDA-N = system: MDA-N
K-562 leukemia = system: K-562 leukemia
SK-MEL-5 melanoma = system: SK-MEL-5 melanoma
HT29 colon = system: HT29 colon
NCI-H23 lung = system: NCI-H23 lung
ACHN renal = system: ACHN renal
SF-268 CNS = system: SF-268 CNS
PC-3 prostate = system: PC-3 prostate
UACC-257 melanoma = system: UACC-257 melanoma
IGROV1 ovarian = system: IGROV1 ovarian
HCT-116 colon = system: HCT-116 colon
COLO 205 colon = system: COLO 205 colon
LOX IMVI melanoma = system: LOX IMVI melanoma
SK-MEL-28 melanoma = system: SK-MEL-28 melanoma
BT-549 breast = system: BT-549 breast
MCF7 breast = system: MCF7 breast
NCI/ADR-RES ovarian = system: NCI/ADR-RES ovarian
SK-OV-3 ovarian = system: SK-OV-3 ovarian
HCT-15 colon = system: HCT-15 colon
SNB-75 CNS = system: SNB-75 CNS
OVCAR-3 ovarian = system: OVCAR-3 ovarian
SK-MEL-2 melanoma = system: SK-MEL-2 melanoma
NCI-H460 lung = system: NCI-H460 lung
TK-10 renal = system: TK-10 renal
OVCAR-8 ovarian = system: OVCAR-8 ovarian
MOLT-4 leukemia = system: MOLT-4 leukemia
HS 578T breast = system: HS 578T breast
A549 NSCLC = system: A549 NSCLC
UACC-62 melanoma = system: UACC-62 melanoma
UO-31 renal = system: UO-31 renal
HL-60(TB) leukemia = system: HL-60(TB) leukemia

O=C1C(=Cc2ccco2)C(=O)C2CCCCC12 (centres undefined)
TGI (HOP-92 NSCLC): > 100 µM
TGI (CCRF-CEM leukemia): > 100 µM
TGI (M14 melanoma): > 100 µM
TGI (786-0 renal): > 100 µM
TGI (EKVX NSCLC): > 100 µM
TGI (SNB-19 CNS): > 100 µM
TGI (DU-145 prostate): > 100 µM
TGI (HOP-62 NSCLC): > 100 µM
TGI (KM12 colon): > 100 µM
TGI (MALME-3M melanoma): > 100 µM
TGI (T-47D breast): > 100 µM
TGI (CAKI-1 renal): > 100 µM
TGI (HCC-2998 colon): > 100 µM
TGI (SF-539 CNS): > 100 µM
TGI (U251 CNS): > 100 µM
TGI (A498 renal): > 100 µM
TGI (SF-295 CNS): > 100 µM
TGI (MDA-MB-231 breast): > 100 µM
TGI (RPMI-8226 leukemia): > 100 µM
TGI (SR leukemia): > 100 µM
TGI (RXF 393 renal): > 100 µM
TGI (SW-620 colon): > 100 µM
TGI (OVCAR-5 ovarian): > 100 µM
TGI (OVCAR-4 ovarian): > 100 µM
TGI (NCI-H522 lung): > 100 µM
TGI (SN12C renal): > 100 µM
TGI (NCI-H226 lung): > 100 µM
TGI (MDA-MB-435): > 100 µM
TGI (MDA-N): > 100 µM
TGI (K-562 leukemia): 73.2 µM
TGI (SK-MEL-5 melanoma): > 100 µM
TGI (HT29 colon): > 100 µM
TGI (NCI-H23 lung): > 100 µM
TGI (ACHN renal): > 100 µM
TGI (SF-268 CNS): > 100 µM
TGI (PC-3 prostate): > 100 µM
TGI (UACC-257 melanoma): > 100 µM
TGI (IGROV1 ovarian): > 100 µM
TGI (HCT-116 colon): > 100 µM
TGI (COLO 205 colon): > 100 µM
TGI (LOX IMVI melanoma): > 100 µM
TGI (SK-MEL-28 melanoma): > 100 µM
TGI (BT-549 breast): > 100 µM
TGI (MCF7 breast): > 100 µM
TGI (NCI/ADR-RES ovarian): > 100 µM
TGI (SK-OV-3 ovarian): > 100 µM
TGI (HCT-15 colon): > 100 µM
TGI (SNB-75 CNS): > 100 µM
TGI (OVCAR-3 ovarian): > 100 µM
TGI (SK-MEL-2 melanoma): > 100 µM
TGI (NCI-H460 lung): > 100 µM
TGI (TK-10 renal): > 100 µM
TGI (OVCAR-8 ovarian): > 100 µM
TGI (MOLT-4 leukemia): > 100 µM
TGI (HS 578T breast): > 100 µM
TGI (A549 NSCLC): > 100 µM
TGI (UACC-62 melanoma): > 100 µM

Cc1ccc(C(=O)Cc2nc3ncccc3[nH]c2=O)cc1
TGI (HOP-92 NSCLC): 48.1 µM
TGI (CCRF-CEM leukemia): > 100 µM
TGI (M14 melanoma): > 100 µM
TGI (786-0 renal): 45.3 µM
TGI (EKVX NSCLC): > 100 µM
TGI (SNB-19 CNS): > 100 µM
TGI (DU-145 prostate): > 100 µM
TGI (HOP-62 NSCLC): 48.4 µM
TGI (KM12 colon): > 100 µM
TGI (UO-31 renal): > 100 µM
TGI (MALME-3M melanoma): 72.3 µM
TGI (T-47D breast): > 100 µM
TGI (CAKI-1 renal): > 100 µM
TGI (HCC-2998 colon): > 100 µM
TGI (SF-539 CNS): 74.9 µM
TGI (U251 CNS): 52.7 µM
TGI (A498 renal): > 100 µM
TGI (SF-295 CNS): > 100 µM
TGI (MDA-MB-231 breast): 60.7 µM
TGI (RPMI-8226 leukemia): > 100 µM
TGI (SR leukemia): > 100 µM
TGI (RXF 393 renal): > 100 µM
TGI (SW-620 colon): > 100 µM
TGI (OVCAR-5 ovarian): > 100 µM
TGI (OVCAR-4 ovarian): 84 µM
TGI (NCI-H522 lung): > 100 µM
TGI (SN12C renal): > 100 µM
TGI (NCI-H226 lung): 66.5 µM
TGI (MDA-MB-435): 39.8 µM
TGI (MDA-N): > 100 µM
TGI (K-562 leukemia): > 100 µM
TGI (SK-MEL-5 melanoma): > 100 µM
TGI (HT29 colon): > 100 µM
TGI (NCI-H23 lung): 42.3 µM
TGI (ACHN renal): 69.3 µM
TGI (SF-268 CNS): 99.7 µM
TGI (PC-3 prostate): > 100 µM
TGI (UACC-257 melanoma): > 100 µM
TGI (IGROV1 ovarian): > 100 µM
TGI (HL-60(TB) leukemia): > 100 µM
TGI (HCT-116 colon): 70.4 µM
TGI (COLO 205 colon): > 100 µM
TGI (SK-MEL-28 melanoma): 87.4 µM
TGI (BT-549 breast): 92.5 µM
TGI (MCF7 breast): > 100 µM
TGI (NCI/ADR-RES ovarian): > 100 µM
TGI (SK-OV-3 ovarian): 45.4 µM
TGI (HCT-15 colon): > 100 µM
TGI (OVCAR-3 ovarian): > 100 µM
TGI (SK-MEL-2 melanoma): > 100 µM
TGI (NCI-H460 lung): > 100 µM
TGI (TK-10 renal): 57.4 µM
TGI (OVCAR-8 ovarian): 53.1 µM
TGI (MOLT-4 leukemia): > 100 µM
TGI (HS 578T breast): 71.3 µM
TGI (A549 NSCLC): 26.7 µM
TGI (UACC-62 melanoma): > 100 µM
